Results reported in US5744452A, “γ-L-glutamyl containing immunomodulator compounds and methods therewith” (Wei; Edward T., priority 1995, dated 1998).
Where a SMILES comes first, the peptide text is derived from it. Where no end group is shown, it is not given here.

Key:
murine spleen cells = experiment: IL-2 production by Concanavalin A activated murine spleen cells (CTLL-2 cell assay); assay type: cell-based, CBA mice; settings: for interleukin-2 production by murine spleen cells: Table 6; for IL-2 production by murine spleen cells: Table 2
Description: Spleen cells from CBA mice were cultured in tissue culture plates at a 10^6 cells/ml in RPMI-1640 medium supplemented with 10% fetal calf serum, 2 mM L-glutamine, and 80 μg/ml of Gentamycin. 1 μg/ml of Concanavalin A was used to activate basal IL-2 production from murine spleen lymphocytes. Bestim was added to cell cultures at the "0" time. After 36 hours supernatants were collected, centrifuged at 800 xg and IL-2 levels were measured in a CTLL-2 cell assay (Gillis et al., "T-cell Growth Factor: Parameters of Production and Quantitative Assay for Activity," J. Immunol., 120: 2027-2032, 1978). […] However, due to the variations in the method for IL-2 measurements clear dose-response comparisons could not be achieved.
IL-2 production studies have been performed using murine spleen lymphocytes activated with Concanavalin A. Spleen cells from CBA mice were cultured in a tissue culture plates at a 1×10^6 /ml concentration in RPMI-1640 medium supplemented with 10% fetal calf serum, 2 mM L-glutamine,80 μg/ml Gentamycin and 1 μg/ml Concanavalin A as an inducer of basal level IL-2 synthesis. Bestim at various concentration was added to cell cultures at the "0" time. After 36 hours supernatants were collected, centrifuged at 800 xg and used for IL-2 levels determination in a CTLL-2 cell assay (Gillis et al., 1978). IL-2-dependent CTLL-2 cells were grown in RPMI-1640 medium in the presence of 1-2 U/ml recombinant IL-2 as a growth factor. Before assay, cells were washed twice to remove IL-2 from the medium. After this wash tested supernatants were added and cells were incubated for 36 hours. IL-2-induced proliferation was assayed using a ^3 H-thymidine incorporation method.

murine bone marrow cells = experiment: .THETA.-antigen expression on murine bone marrow cells (T-lymphocyte precursor differentiation); assay type: cell-based, CBA strain mice; parameters: .THETA.-antigen expression on murine bone marrow cells: unit not given here; settings: for immunostimulatory activity in the in vitro assays used: .THETA.-antigen expression and IL-2 production assays, compared with Bestim; for Percent of murine bone marrow cells expressing .THETA.-antigen: Table 5; for .THETA.-antigen expression on murine bone marrow cells: Table 1
Description: Differentiation of murine T-lymphocyte precursors was studied by the enumeration of cells expressing early surface differentiation marker .THETA.-antigen. Bone marrow cells were obtained from CBA strain mice killed by cervical dislocation. Cells were washed from femur bones with Hank's balanced salt solution and washed 3 times with RPM 1-1640 medium by centrifugation at 400 xg. Peptides at desired concentrations were incubated with 1×10^6 /ml of obtained cells for 1 hour at 37° C. Theta-antigen (".THETA.-antigen") expression has been determined with antibrain antibodies in a cytotoxicity assay using complement-dependent cell lysis (Terasaki et al., "Microdroplet Lymphocyte Cytotoxicity Test. Manual of Tissue Typing Techniques," National Institutes of Health, Bethesda, Md., pp 50-55, 1972). Dead cells were counted microscopically after eosin staining. […] Its activity was much stronger than that of the reference thymogen peptide.
Differentiation of murine T-lymphocyte precursors was studied by the enumeration of cells expressing early surface differentiation marker--.THETA.-antigen which is an analog of the Thy-1 lymphocyte differentiation antigen. Bone marrow cells were obtained from CBA strain mice killed by cervical dislocation. Cells were washed from femur bones with Hank's balanced salt solution and washed 3 times with RPMI-1640 medium by centrifugation at 400 xg. Peptides at desired concentrations were incubated with 1×10^6 /ml of obtained cells for 1 hour at 37° C. .THETA.-antigen expression were determined with antibrain antibodies in a cytotoxicity assay using complement-dependent cell lysis (Terasaki et al., 1972). Dead cells were counted microscopically after eosin staining untreated bone marrow cells served as a negative control, and murine thymocytes as a positive control.

[1] = cited from earlier work

Compound	interleukin-2 production by murine spleen cells (murine spleen cells; peptide 0.001 μg/ml)	interleukin-2 production by murine spleen cells (murine spleen cells; peptide 0.01 μg/ml)	interleukin-2 production by murine spleen cells (murine spleen cells; peptide 0.1 μg/ml)	interleukin-2 production by murine spleen cells (murine spleen cells; peptide 1.0 μg/ml)	interleukin-2 production by murine spleen cells (murine spleen cells; peptide 10 μg/ml)	interleukin-2 production by murine spleen cells (murine spleen cells; peptide 100 μg/ml)	immunostimulatory activity in the in vitro assays used (murine bone marrow cells)	Percent of murine bone marrow cells expressing .THETA.-antigen (murine bone marrow cells; peptide 0.0001 μg/ml) [%]	Percent of murine bone marrow cells expressing .THETA.-antigen (murine bone marrow cells; peptide 0.001 μg/ml) [%]	Percent of murine bone marrow cells expressing .THETA.-antigen (murine bone marrow cells; peptide 0.01 μg/ml) [%]	Percent of murine bone marrow cells expressing .THETA.-antigen (murine bone marrow cells; peptide 0.1 μg/ml) [%]	Percent of murine bone marrow cells expressing .THETA.-antigen (murine bone marrow cells; peptide 1.0 μg/ml) [%]	Percent of murine bone marrow cells expressing .THETA.-antigen (murine bone marrow cells; peptide 10 μg/ml) [%]	Percent of murine bone marrow cells expressing .THETA.-antigen (murine bone marrow cells; peptide 100 μg/ml) [%]	further results
CN[C@@H](CCC(=O)N[C@@H](Cc1c[nH]c2ccccc12)C(=O)O)C(=O)O [B, N-methyl-γ-L-glutamyl-L-tryptophan]	134 ± 6	147 ± 8	152 ± 7	165 ± 6	171 ± 6	180 ± 11	active compounds were obtained	20	29	34	40	47	51	53	
CC(=O)N[C@@H](CCC(=O)N[C@@H](Cc1c[nH]c2ccccc12)C(=O)O)C(=O)O [C, N-acetyl-γ-L-glutamyl-L-tryptophan]	128 ± 7	136 ± 7	149 ± 5	157 ± 9	170 ± 4	174 ± 8	active compounds were obtained	19	28	35	40	45	46	50	
N[C@@H](CCC(=O)N[C@@H](Cc1cn(C=O)c2ccccc12)C(=O)O)C(=O)O [D, γ-L-glutamyl-Nin -formyl-L-tryptophan]	114 ± 16	125 ± 3	153 ± 20	132 ± 8	144 ± 7	154 ± 5	active compounds were obtained	24	25	30	36	42	48	53	
N[C@@H](CCC(=O)O)C(=O)N[C@@H](Cc1c[nH]c2ccccc12)C(=O)O [Thymogen, L-glutamyl-L-tryptophan, reference compound] (H-Glu-Trp-OH)	115 ± 8	132 ± 16	118 ± 11	128 ± 5	129 ± 10	136 ± 4				18	20	25	29	32	IL-2 production by murine spleen cells (murine spleen cells; peptide 0.001 μg/ml, 36 hours): 114 ± 12; IL-2 production by murine spleen cells (murine spleen cells; peptide 0.01 μg/ml): 106 ± 10; IL-2 production by murine spleen cells (murine spleen cells; peptide 0.1 μg/ml): 106 ± 5; IL-2 production by murine spleen cells (murine spleen cells; peptide 1.0 μg/ml): 189 ± 13; IL-2 production by murine spleen cells (murine spleen cells; peptide 10 μg/ml): 80 ± 9; IL-2 production by murine spleen cells (murine spleen cells; peptide 100 μg/ml): 89 ± 3; .THETA.-antigen expression on murine bone marrow cells (murine bone marrow cells; peptide 0.0001 μg/ml, 1 hour 37° C.): 10 ± 0.5; .THETA.-antigen expression on murine bone marrow cells (murine bone marrow cells; peptide 0.001 μg/ml): 10 ± 1.2; .THETA.-antigen expression on murine bone marrow cells (murine bone marrow cells; peptide 0.01 μg/ml): 10 ± 0.5; .THETA.-antigen expression on murine bone marrow cells (murine bone marrow cells; peptide 0.1 μg/ml): 9 ± 1.0; .THETA.-antigen expression on murine bone marrow cells (murine bone marrow cells; peptide 1.0 μg/ml): 21 ± 0.8; .THETA.-antigen expression on murine bone marrow cells (murine bone marrow cells; peptide 10 μg/ml): 36 ± 2.8; .THETA.-antigen expression on murine bone marrow cells (murine bone marrow cells; peptide 100 μg/ml): 37 ± 2.2
N[C@@H](CCC(=O)N[C@@H](Cc1c[nH]cn1)C(=O)O)C(=O)O [γ-L-glutamyl-L-histidine]							little, if any, of the activities of Bestim								
CC[C@H](C)[C@H](NC(=O)CC[C@H](N)C(=O)O)C(=O)O [γ-L-glutamyl-L-isoleucine]							little, if any, of the activities of Bestim								
CC(C)C[C@H](NC(=O)CC[C@H](N)C(=O)O)C(=O)O [γ-L-glutamyl-L-leucine]							little, if any, of the activities of Bestim								
N[C@@H](CCC(=O)N[C@@H](Cc1ccccc1)C(=O)O)C(=O)O [γ-L-glutamyl-L-phenylalanine]							little, if any, of the activities of Bestim								
N[C@@H](CCC(=O)N1CCC[C@H]1C(=O)O)C(=O)O [γ-L-glutamyl-L-proline]							little, if any, of the activities of Bestim								
N[C@@H](CCC(=O)N[C@@H](Cc1ccc(O)cc1)C(=O)O)C(=O)O [γ-L-glutamyl-L-tyrosine]							little, if any, of the activities of Bestim								
RKDVY [thymopentin, Arg-Lys-Asp-Val-Tyr]															half-life of breakdown in plasma [1]: 30 s
γ-L-glutamyl-β-thienyl-D-alanyl-amide	146 ± 28	127 ± 26	128 ± 10	156 ± 11	172 ± 12	198 ± 7	active compounds were obtained	20	23	20	27	28	36	40	
